This passage reports IC50 results from US20190322676A1, “CERAMIDE GALACTOSYLTRANSFERASE INHIBITORS FOR THE TREATMENT OF DISEASE” (BioMarin Pharmaceutical Inc., priority 2016, published 2019).

Structures can show the parent of a compound that is named as a salt.

This assay addresses T1, human CGT (ceramide galactosyltransferase), CHO/CGT lysate (Homo sapiens, UniProt Q16880).
T1 construct: Full-length human CGT cDNA was cloned into the BamH1/Xho1 site of pcDNA3.1 (+); expressed in transfected cells; host or cells: Chinese hamster ovary (CHO) cells; lysate prepared with M-PER
T1 sequence (Q16880 21-541): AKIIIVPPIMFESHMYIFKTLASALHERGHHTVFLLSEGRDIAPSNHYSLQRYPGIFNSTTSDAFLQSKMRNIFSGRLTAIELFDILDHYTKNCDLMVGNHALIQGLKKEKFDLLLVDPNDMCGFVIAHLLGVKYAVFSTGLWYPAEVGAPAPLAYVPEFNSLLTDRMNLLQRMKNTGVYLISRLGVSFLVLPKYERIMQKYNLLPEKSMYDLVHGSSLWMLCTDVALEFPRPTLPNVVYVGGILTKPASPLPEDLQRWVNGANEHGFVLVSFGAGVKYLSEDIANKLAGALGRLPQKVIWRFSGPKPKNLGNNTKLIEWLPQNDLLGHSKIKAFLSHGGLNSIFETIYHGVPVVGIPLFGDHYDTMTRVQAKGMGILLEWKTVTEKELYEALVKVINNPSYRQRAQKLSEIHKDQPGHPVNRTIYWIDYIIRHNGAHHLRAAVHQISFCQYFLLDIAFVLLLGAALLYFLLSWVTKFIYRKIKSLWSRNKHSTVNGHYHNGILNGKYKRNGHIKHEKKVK
Description: CGT enzyme assay, RapidFire/MS/MS readout with 0.01% Tween added (Table 1 ranges with two asterisks **). The note with it: CGT enzymatic assay; range with two asterisks (**): RapidFire/MS/MS method with 0.01% Tween added. Type of assay: biochemical. Here is the method: Full-length human CGT cDNA was cloned into the BamH1/Xho1 site of pcDNA3.1 (+) mammalian expression vector (V90-20, Invitrogen, Carlsbad, Calif.) and the plasmid was transfected into Chinese hamster ovary (CHO) cells. Lysate was prepared using M-PER (Mammalian Protein Extraction Reagent, ThermoFisher Scientific, Grand Island, N.Y.) in the presence of a protease inhibitor cocktail (P8340, Sigma, Saint Louis, Mo.). Each 100 mm dish (100% confluent, approximately 1×10^7 cells) was lysed with 250 μL of M-PER containing protease inhibitors. Protein concentration was determined using a Pierce BCA protein assay kit (ThermoFisher Scientific). Four micrograms of CHO/CGT lysate was incubated with various concentrations of a compound (0.001 μM-50 μM) in 10 mM HEPES (pH 7.2) containing 35 μM dioleoylphosphatidylcholine, 5 mM MgCl2, 5 mM MnCl2, 1% BSA, 15 mM KCl, 1 mM EGTA, 8 mM CHAPS, 10 μM C6-NBD-dihydro-ceramide and 17.5 μM UDP-galactose in a final reaction volume of 20 μL at 37° C. for 1 hour. The final concentration of DMSO was 0.5% in both compound-treated and mock-treated samples. Tween 80 (0.01%) was optionally added to the reaction mixture to help solubilize the compounds. Each individual reaction was diluted with 80 μL of methanol:acetronitrile (1:3) containing 5 μM N-docdecanoyl-NBD-galactosylceramide (internal standard) to stop the reaction. 200 μL H2O:acetonitile (1:1) was added to precipitate the protein. After sufficient mixing, the plates were centrifuged at 2469 g for 38 minutes, 200 μL of supernatant was transferred to a LC/MS 96-deep well plate and a second spin was performed at 2469 g for 10 minutes. The final supernatant was injected in triplicate for RapidFire/MS/MS analysis.
Quantitative Analysis Using the RapidFire/MS/MS Method:
The quantitative analysis of C6-NBD-dihydro-ceramide and C6-NBD-dihydro-galactosylceramide was performed on a Rapid Fire 360 high-throughput mass spectrometry system (Agilent Technologies, Palo Alto, Calif.) coupled with a API4000^+ triple quadrupole mass spectrometer (Applied Biosystems, Concord, Ontario, Canada). RapidFire software packages, including RapidFire Control panel, RapidFire UI and RapidFire Integrator (Agilent Technologies), were used to control the RapidFire instrument and to process data. Analyst 1.6.2 software packages (Applied Biosystems) were used to control the MS system and acquire MS data. […] of sample was loaded on a micro-scale C4 solid-phase extraction (SPE) cartridge (Agilent Technologies) and salts were removed using water supplemented with 0.1% formic acid at the flow rate of 1.5 mL/min for 3 sec. C6-NBD-dihydro-ceramide and C6-NBD-dihydro-galactosylceramide were co-eluted into the mass spectrometer using acetonitrile containing 0.1% formic acid at the flow rate of 1.0 mL/min for 3 sec. The total cycle time of one injection was 8 secs. The MS/MS detection was performed in ESI negative mode. The mass transition of C6-NBD-dihydro-galactosylceramide was m/z 752.6→678.6 using a −40 V collision energy, the mass transition of C6-NBD-dihydro-ceramide was m/z 590.6→115.8 using a −40 V collision energy and the mass transition of N-docdecanoyl-NBD-galactosylceramide was m/z 820.9→746.3 using a −45 V collision energy.
The C6-NBD-dihydro-galactosylceramide reading was normalized first by dividing the peak area of C6-NBD-dihydro-galactosylceramide by the peak area of the internal standard, N-docdecanoyl-NBD-galactosylceramide. IC50 values (see Table 1, where data ranges with one asterix (*) correspond to analysis using the RapidFire/MS/MS method, and data ranges with two asterixes (**) correspond to analysis using the RapidFire/MS/MS method with 0.01% Tween added) were generated from sigmoidal dose-response curves (variable slope) with GraphPad Prism software (GraphPad Software, Inc., San Diego, Calif.) using the normalized peak areas of C6-NBD-dihydro-galactosylceramide or the percent inhibition of C6-NBD-dihydro-galactosylceramide accumulation relative to DMSO control. […]
As usually defined, the IC50 is the concentration needed to halve the response being measured. A lower IC50 goes with greater potency in that assay. For `N[C@@H]1CCN(C(=O)[C@@H](NS(=O)(=O)c2ccc(OCC3CCCCC3)cc2)C(F)(F)c2ccc(-c3ccc(Cl)cc3)cc2)C1` [Compound 155-1, N—((R)-3-((R)-3-aminopyrrolidin-1-yl)-1-(4′-chloro-[1,1′-biphenyl]-4-yl)-1,1-difluoro-3-oxopropan-2-yl)-4-(cyclohexylmethoxy)benzenesulfonamide trifluoroacetate], the IC50 was below 1 µM. The same measure for `N[C@@H]1CCN(C(=O)[C@H](NS(=O)(=O)c2ccc(OCC3CCCCC3)cc2)C(F)(F)c2ccc(-c3ccc(Cl)cc3)cc2)C1` [Compound 155-2, N—((S)-3-((R)-3-aminopyrrolidin-1-yl)-1-(4′-chloro-[1,1′-biphenyl]-4-yl)-1,1-difluoro-3-oxopropan-2-yl)-4-(cyclohexylmethoxy) benzenesulfonamide trifluoroacetate]: 1 to 10 µM; for `NC1CCN(C(=O)[C@@H](NS(=O)(=O)c2ccc(OCC3CCCCC3)cc2)C(F)(F)c2ccc(-c3ccccc3)cc2)CC1` [Compound 156-1, (R)—N-(1-([1,1′-biphenyl]-4-yl)-3-(4-aminopiperidin-1-yl)-1,1-difluoro-3-oxopropan-2-yl)-4-(cyclohexylmethoxy)benzenesulfonamide trifluoroacetate]: 1 to 10 µM; for `NC1CCN(C(=O)[C@H](NS(=O)(=O)c2ccc(OCC3CCCCC3)cc2)C(F)(F)c2ccc(-c3ccccc3)cc2)CC1` [Compound 156-2, (S)—N-(1-([1,1′-biphenyl]-4-yl)-3-(4-aminopiperidin-1-yl)-1,1-difluoro-3-oxopropan-2-yl)-4-(cyclohexylmethoxy)benzenesulfonamide trifluoroacetate]: 30 to 100 µM.

`CN(CCCN)C(=O)[C@@H](NS(=O)(=O)c1ccc2cc(OC3CCCC3)ccc2c1)C(F)(F)c1ccc(-c2ccc(Cl)cc2)cc1` [Compound 157-1, (R)—N-(3-aminopropyl)-3-(4′-chloro-[1,1′-biphenyl]-4-yl)-2-((6-(cyclopentyloxy)naphthalene)-2-sulfonamido)-3,3-difluoro-N-methylpropanamide] gave a half-maximal inhibitory concentration (IC50) of 1 to 10 µM.

For `CN(CCCN)C(=O)[C@H](NS(=O)(=O)c1ccc2cc(OC3CCCC3)ccc2c1)C(F)(F)c1ccc(-c2ccc(Cl)cc2)cc1` [Compound 157-2, (S)—N-(3-aminopropyl)-3-(4′-chloro-[1,1′-biphenyl]-4-yl)-2-((6-(cyclopentyloxy)naphthalene)-2-sulfonamido)-3,3-difluoro-N-methyl propanamide], the IC50 was in the range of 30 to 100 µM. The same measure for `NC1CC2CCC(C1)N2C(=O)[C@@H](NC(=O)[C@H](O)c1ccc2cc(OC3CCCC3)ccc2c1)C(F)(F)c1ccc2cc(Br)ccc2c1` (stereo partly drawn) [Compound 158-1, (2R)—N-((2R)-3-(3-amino-8-azabicyclo[3.2.1]octan-8-yl)-1-(6-bromonaphthalen-2-yl)-1,1-difluoro-3-oxopropan-2-yl)-2-(6-(cyclopentyloxy)naphthalen-2-yl)-2-hydroxyacetamide trifluoroacetate]: 1 to 10 µM; for `NC1CC2CCC(C1)N2C(=O)[C@H](NC(=O)[C@@H](O)c1ccc2cc(OC3CCCC3)ccc2c1)C(F)(F)c1ccc2cc(Br)ccc2c1` (stereo partly drawn) [Compound 158-2, (2S)—N-((2 S)-3-(3-amino-8-azabicyclo[3.2.1]octan-8-yl)-1-(6-bromonaphthalen-2-yl)-1,1-difluoro-3-oxopropan-2-yl)-2-(6-(cyclopentyloxy)naphthalen-2-yl)-2-hydroxyacetamide trifluoroacetate]: 30 to 100 µM; for `NC1CC2CCC(C1)N2C(=O)[C@@H](NC(=O)[C@@H](O)c1ccc2cc(OC3CCCC3)ccc2c1)C(F)(F)c1ccc2cc(Br)ccc2c1` (stereo partly drawn) [Compound 158-3, (2S)—N-((2R)-3-(3-amino-8-azabicyclo[3.2.1]octan-8-yl)-1-(6-bromonaphthalen-2-yl)-1,1-difluoro-3-oxopropan-2-yl)-2-(6-(cyclopentyloxy)naphthalen-2-yl)-2-hydroxyacetamide trifluoroacetate]: 10 to 30 µM.

Consider `NC1CC2CCC(C1)N2C(=O)[C@H](NC(=O)[C@H](O)c1ccc2cc(OC3CCCC3)ccc2c1)C(F)(F)c1ccc2cc(Br)ccc2c1` (stereo partly drawn) [Compound 158-4, (2R)—N-((2S)-3-(3-amino-8-azabicyclo[3.2.1]octan-8-yl)-1-(6-bromonaphthalen-2-yl)-1,1-difluoro-3-oxopropan-2-yl)-2-(6-(cyclopentyloxy)naphthalen-2-yl)-2-hydroxyacetamide trifluoroacetate], for which the IC50 lay within 30 to 100 µM. The same measure for `NC1CCN(C(=O)[C@@H](NC(=O)[C@H](O)c2ccc3cc(OC4CCCC4)ccc3c2)C(F)(F)c2ccc(-c3ccc(Cl)cc3)cc2)CC1` [Compound 159-1, (R)—N—((R)-3-(4-aminopiperidin-1-yl)-1-(4′-chloro-[1,1′-biphenyl]-4-yl)-1,1-difluoro-3-oxopropan-2-yl)-2-(6-(cyclopentyloxy)naphthalen-2-yl)-2-hydroxyacetamide trifluoroacetate]: 1 to 10 µM; for `NC1CCN(C(=O)[C@H](NC(=O)[C@@H](O)c2ccc3cc(OC4CCCC4)ccc3c2)C(F)(F)c2ccc(-c3ccc(Cl)cc3)cc2)CC1` [Compound 159-2, (S)—N—((S)-3-(4-aminopiperidin-1-yl)-1-(4′-chloro-[1,1′-biphenyl]-4-yl)-1,1-difluoro-3-oxopropan-2-yl)-2-(6-(cyclopentyloxy)naphthalen-2-yl)-2-hydroxyacetamide trifluoroacetate]: 30 to 100 µM; for `NC1CCN(C(=O)[C@@H](NC(=O)[C@@H](O)c2ccc3cc(OC4CCCC4)ccc3c2)C(F)(F)c2ccc(-c3ccc(Cl)cc3)cc2)CC1` [Compound 159-3, (S)—N—((R)-3-(4-aminopiperidin-1-yl)-1-(4′-chloro-[1,1′-biphenyl]-4-yl)-1,1-difluoro-3-oxopropan-2-yl)-2-(6-(cyclopentyloxy)naphthalen-2-yl)-2-hydroxyacetamide trifluoroacetate]: 1 to 10 µM.

As to `NC1CCN(C(=O)[C@H](NC(=O)[C@H](O)c2ccc3cc(OC4CCCC4)ccc3c2)C(F)(F)c2ccc(-c3ccc(Cl)cc3)cc2)CC1` [Compound 159-4, (R)—N—((S)-3-(4-aminopiperidin-1-yl)-1-(4′-chloro-[1,1′-biphenyl]-4-yl)-1,1-difluoro-3-oxopropan-2-yl)-2-(6-(cyclopentyloxy)naphthalen-2-yl)-2-hydroxyacetamide trifluoroacetate], the half-maximal inhibitory concentration (IC50) lay in the range of 30 to 100 µM.
